In patent publication US8039493B2, “Biaryl sulfonamide derivatives” (Hoffmann-La Roche Inc., priority 2008, dated 2011):

How the values were obtained:
human LXR beta = target: T1, human LXR beta (Homo sapiens, UniProt P55055); assay: Radioligand binding assay (scintillation proximity), LXR beta-LBD; conditions: LXR beta-LBD on SPA beads, read-out: LXRbeta Binding IC50
T1 construct: human LXR beta (aa 155 to 460); made in house; host or cells: E. coli BL21 (pLysS)
T1 sequence (P55055 155-460): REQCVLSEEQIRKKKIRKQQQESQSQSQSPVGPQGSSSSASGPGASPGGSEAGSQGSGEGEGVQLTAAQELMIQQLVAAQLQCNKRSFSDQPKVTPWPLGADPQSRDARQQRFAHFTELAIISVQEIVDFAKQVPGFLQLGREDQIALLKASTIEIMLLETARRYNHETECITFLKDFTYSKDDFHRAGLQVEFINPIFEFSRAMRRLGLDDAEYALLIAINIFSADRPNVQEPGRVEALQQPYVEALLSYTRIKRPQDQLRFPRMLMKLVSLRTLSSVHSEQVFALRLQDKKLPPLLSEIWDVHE
Experimental: (§1) The following tests were carried out in order to determine the activity of the compounds of the present invention. […] Mammalian expression vectors were constructed to express full-length human LXR alpha and LXR beta. […] To accomplish this, the portions of the sequences encoding the LBDs were amplified from the full-length clones by PCR and then subcloned into the plasmid vectors.
(§2) Induction, expression, and purification of LBD proteins were performed in E. coli strain BL21 (pLysS) cells by standard methods (Ref: Current Protocols in Molecular Biology, Wiley Press, edited by Ausubel et al).
(§3) Radioligand Binding Assay
(§4) LXR alpha and LXR beta receptor binding were assayed in buffer consisting of 50 mM HEPES, pH 7.4, 10 mM NaCl, 5 mM MgCl2. For each 96-well reaction, 500 ng of LXRα-LBD or 700 ng of LXR beta-LBD proteins were bound to 80 μg or 40 μg SPA beads respectively, in a final volume of 50 μl by shaking. The resulting slurry was incubated for 1 h at RT and centrifuged for 2 min at 1300×g. The supernatant containing unbound protein was removed, and the semi-dry pellet containing the receptor-coated beads was re-suspended in 50 μl of buffer. Radioligand (eg. 100,000 dpm of (N-(2,2,2-trifluoroethyl)-N-[4-(2,2,2-trifluoro-1-hydroxy-1-trifluoromethylethyl)-phenyl]-benzenesulfonamide)) was added, and the reaction incubated at RT for 1 h in the presence of test compounds, and then scintillation proximity counting was performed. All binding assays were performed in 96-well plates and the amount of bound ligand was measured on a Packard TopCount using OptiPlates (Packard). Dose response curves were measured within a range of concentration from 10^−10 M to 10^−4 M.

human LXR alpha = target: T2, human LXR alpha (Homo sapiens, UniProt Q13133); assay: Radioligand binding assay (scintillation proximity), LXRα-LBD; conditions: LXRα-LBD on SPA beads, read-out: LXRalpha Binding IC50
T2 construct: human LXR alpha (aa 164 to 447); made in house; host or cells: E. coli BL21 (pLysS)
T2 sequence (Q13133 164-447): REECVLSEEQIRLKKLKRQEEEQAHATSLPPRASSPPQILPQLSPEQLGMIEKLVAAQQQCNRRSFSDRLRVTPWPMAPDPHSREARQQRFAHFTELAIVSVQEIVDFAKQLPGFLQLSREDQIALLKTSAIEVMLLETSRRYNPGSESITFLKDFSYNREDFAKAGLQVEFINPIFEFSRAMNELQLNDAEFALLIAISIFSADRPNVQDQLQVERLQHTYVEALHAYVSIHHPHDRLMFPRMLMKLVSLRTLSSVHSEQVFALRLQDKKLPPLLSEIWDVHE
Experimental: as §1, §2, §3, §4

| SMILES | IC50 (human LXR beta) [nM] | IC50 (human LXR alpha) [nM] |
| --- | --- | --- |
| CS(=O)(=O)c1cccc(-c2ccc(CN(CC3OCCO3)S(=O)(=O)c3ccccc3C(F)(F)F)s2)c1 [Example 39, N-[1,3]Dioxolan-2-ylmethyl-N-[5-(3-methanesulfonyl-phenyl)-thiophen-2-ylmethyl]-2-trifluoromethyl-benzenesulfonamide] | 47 | 820 |
| CS(=O)(=O)c1cccc(-c2ccc(CN(CC3CCCO3)S(=O)(=O)c3ccccc3C(F)(F)F)s2)c1 (stereo not drawn) [Example 41, N-[5-(3-Methanesulfonyl-phenyl)-thiophen-2-ylmethyl]-N-(tetrahydro-furan-2-ylmethyl)-2-trifluoromethyl-benzenesulfonamide] | 37 | 790 |
| CC(C)CN(Cc1cccc(-c2cccc(S(C)(=O)=O)c2)n1)S(=O)(=O)c1ccccc1Cl [Example 47, 2-Chloro-N-isobutyl-N-[6-(3-methanesulfonyl-phenyl)-pyridin-2-ylmethyl]-benzenesulfonamide] | 49.5 | 1480 |
| CCCN(Cc1cccc(-c2cccc(S(C)(=O)=O)c2)c1)S(=O)(=O)C(C)C [Example 49, Propane-2-sulfonic acid (3′-methanesulfonyl-biphenyl-3-ylmethyl)-propyl-amide] | 1560 | 20100 |
| CC(C)CN(Cc1cccc(-c2cccc(S(C)(=O)=O)c2)c1)S(=O)(=O)C(C)C [Example 50, Propane-2-sulfonic acid isobutyl-(3′-methanesulfonyl-biphenyl-3-ylmethyl)-amide] | 805 | 2270 |
| CC(C)S(=O)(=O)N(Cc1cccc(-c2cccc(S(C)(=O)=O)c2)c1)CC1CCC1 [Example 51, Propane-2-sulfonic acid cyclobutylmethyl-(3′-methanesulfonyl-biphenyl-3-ylmethyl)-amide] | 280 | 1630 |
| CC(C)CN(Cc1cc(-c2cncc(S(C)(=O)=O)c2)cs1)S(=O)(=O)c1ccccc1Cl [Example 55, 2-Chloro-N-isobutyl-N-[4-(5-methanesulfonyl-pyridin-3-yl)-thiophen-2-ylmethyl]-benzenesulfonamide] | 83 | 2530 |
| CC(C)CN(Cc1cc(-c2cccc(S(=O)(=O)NC(C)(C)C)c2)cs1)S(=O)(=O)c1ccccc1Cl [Example 56, 2-Chloro-N-isobutyl-N-[4-(3-tert-butylaminosulfonyl-phenyl)-thiophen-2-ylmethyl]-benzenesulfonamide] | 39100 | 17700 |
| CC(C)CN(Cc1ccc(-c2cccc(S(C)(=O)=O)c2)s1)S(=O)(=O)CC1CCCCC1 [Example 58, C-Cyclohexyl-N-isobutyl-N-[5-(3-methanesulfonyl-phenyl)-thiophen-2-ylmethyl]-methanesulfonamide] | 1340 | 31700 |

More lines, in order of falling IC50 (human LXR beta), values ahead:

| IC50 (human LXR beta) [nM] | IC50 (human LXR alpha) [nM] | SMILES |
| --- | --- | --- |
| 285 | 10700 | CS(=O)(=O)c1cccc(-c2ccc(CN(CCN3CCCC3)S(=O)(=O)c3ccccc3C(F)(F)F)s2)c1 [Example 40, N-[5-(3-Methanesulfonyl-phenyl)-thiophen-2-ylmethyl]-N-(2-pyrrolidin-1-yl-ethyl)-2-trifluoromethyl-benzenesulfonamide] |
| 255 | 2800 | CC(C)S(=O)(=O)N(Cc1ccc(F)cc1)Cc1cccc(-c2cccc(S(C)(=O)=O)c2)c1 [Example 53, Propane-2-sulfonic acid (4-fluoro-benzyl)-(3′-methanesulfonyl-biphenyl-3-ylmethyl)-amide] |
| 150 | 7860 | CC(C)CN(Cc1ccnc(-c2cccc(S(C)(=O)=O)c2)c1)S(=O)(=O)c1ccccc1Cl [Example 48, 2-Chloro-N-isobutyl-N-[2-(3-methanesulfonyl-phenyl)-pyridin-4-ylmethyl]-benzenesulfonamide] |
| 33.5 | 610 | CC(C)S(=O)(=O)N(Cc1cccc(-c2cccc(S(C)(=O)=O)c2)c1)Cc1ccccc1F [Example 52, Propane-2-sulfonic acid (2-fluoro-benzyl)-(3′-methanesulfonyl-biphenyl-3-ylmethyl)-amide] |
| 30 | 3440 | CC(C)CN(Cc1cncc(-c2cccc(S(C)(=O)=O)c2)c1)S(=O)(=O)c1ccccc1Cl [Example 44, 2-Chloro-N-isobutyl-N-[5-(3-methanesulfonyl-phenyl)-pyridin-3-ylmethyl]-benzenesulfonamide] |
| 19 | 26 | CC(C)CN(Cc1cccc(-c2cccc(S(C)(=O)=O)c2)c1)S(=O)(=O)c1ccccc1Cl [Example 43, 2-Chloro-N-isobutyl-N-(3′-methanesulfonyl-biphenyl-3-ylmethyl)-benzenesulfonamide] |
| 7.4 | 84.5 | CC(C)CN(Cc1cc(-c2cccc(S(N)(=O)=O)c2)cs1)S(=O)(=O)c1ccccc1Cl [Example 54, 2-Chloro-N-isobutyl-N-[4-(3-aminosulfonyl-phenyl)-thiophen-2-ylmethyl]-benzenesulfonamide] |
| 6.8 | 8.2 | CC(C)CN(Cc1ccc(-c2cccc(S(C)(=O)=O)c2)cc1F)S(=O)(=O)c1ccccc1Cl [Example 42, 2-Chloro-N-(3-fluoro-3′-methanesulfonyl-biphenyl-4-ylmethyl)-N-isobutyl-benzenesulfonamide] |
| 2.3 | 425 | CC(C)CN(Cc1ccc(-c2cccc(S(C)(=O)=O)c2)cn1)S(=O)(=O)c1ccccc1Cl [Example 45, 2-Chloro-N-isobutyl-N-[5-(3-methanesulfonyl-phenyl)-pyridin-2-ylmethyl]-benzenesulfonamide] |
